From PMC9401487 (Clinical Cancer Research, 2021)
“Also recorded” adds a separate entry of the source.

Tested on: patients with advanced solid tumors
Assay: Phase I safety and tolerability
Format: in vivo, human
[1] = Cohort 1 (N=2), 20 mg BID 17 days + carboplatin
[2] = Cohort 2 (N=7), 20 mg BID 10 days + carboplatin
[3] = Cohort 3 (N=3), 40 mg BID 10 days + carboplatin

C[C@@H]1COCCN1c1cc(C2([S@](C)(=N)=O)CC2)nc(-c2cc[nH]c3nccc2-3)n1 [ceralasertib]
TEAE Abdominal pain, Grade 1–2 [1]: 0 patients, n (%)
TEAE Abdominal pain, Grade ≥3 [1]: 1 (50) patients, n (%)
TEAE Alanine aminotransferase increased, Grade 1–2 [1]: 0 patients, n (%)
TEAE Alanine aminotransferase increased, Grade ≥3 [1]: 0 patients, n (%)
TEAE Anemia, Grade 1–2 [1]: 1 (50) patients, n (%)
TEAE Anemia, Grade ≥3 [1]: 0 patients, n (%)
TEAE Any AE, Grade 1–2 [1]: 1 (50) patients, n (%)
TEAE Any AE, Grade ≥3 [1]: 1 (50) patients, n (%)
TEAE Arthralgia, Grade 1–2 [1]: 0 patients, n (%)
TEAE Arthralgia, Grade ≥3 [1]: 0 patients, n (%)
TEAE Aspartate aminotransferase increased, Grade 1–2 [1]: 0 patients, n (%)
TEAE Aspartate aminotransferase increased, Grade ≥3 [1]: 0 patients, n (%)
TEAE Constipation, Grade 1–2 [1]: 1 (50) patients, n (%)
TEAE Constipation, Grade ≥3 [1]: 0 patients, n (%)
TEAE Contusion, Grade 1–2 [1]: 0 patients, n (%)
TEAE Contusion, Grade ≥3 [1]: 0 patients, n (%)
TEAE Cough, Grade 1–2 [1]: 0 patients, n (%)
TEAE Cough, Grade ≥3 [1]: 0 patients, n (%)
TEAE Decreased appetite, Grade 1–2 [1]: 0 patients, n (%)
TEAE Decreased appetite, Grade ≥3 [1]: 0 patients, n (%)
TEAE Diarrhea, Grade 1–2 [1]: 1 (50) patients, n (%)
TEAE Diarrhea, Grade ≥3 [1]: 0 patients, n (%)
TEAE Dizziness, Grade 1–2 [1]: 0 patients, n (%)
TEAE Dizziness, Grade ≥3 [1]: 0 patients, n (%)
TEAE Dyspnea, Grade 1–2 [1]: 1 (50) patients, n (%)
TEAE Dyspnea, Grade ≥3 [1]: 0 patients, n (%)
TEAE Fatigue, Grade 1–2 [1]: 2 (100) patients, n (%)
TEAE Fatigue, Grade ≥3 [1]: 0 patients, n (%)
TEAE Hypocalcemia, Grade 1–2 [1]: 0 patients, n (%)
TEAE Hypocalcemia, Grade ≥3 [1]: 0 patients, n (%)
TEAE Insomnia, Grade 1–2 [1]: 0 patients, n (%)
TEAE Insomnia, Grade ≥3 [1]: 0 patients, n (%)
TEAE Lower respiratory tract infection, Grade 1–2 [1]: 0 patients, n (%)
TEAE Lower respiratory tract infection, Grade ≥3 [1]: 0 patients, n (%)
TEAE Nausea, Grade 1–2 [1]: 1 (50) patients, n (%)
TEAE Nausea, Grade ≥3 [1]: 0 patients, n (%)
TEAE Neutropenia, Grade 1–2 [1]: 0 patients, n (%)
TEAE Neutropenia, Grade ≥3 [1]: 1 (50) patients, n (%)
TEAE Neutrophil count decreased, Grade 1–2 [1]: 0 patients, n (%)
TEAE Neutrophil count decreased, Grade ≥3 [1]: 0 patients, n (%)
TEAE Platelet count decreased, Grade 1–2 [1]: 0 patients, n (%)
TEAE Platelet count decreased, Grade ≥3 [1]: 0 patients, n (%)
TEAE Pyrexia, Grade 1–2 [1]: 1 (50) patients, n (%)
TEAE Pyrexia, Grade ≥3 [1]: 0 patients, n (%)
TEAE Thrombocytopenia, Grade 1–2 [1]: 1 (50) patients, n (%)
TEAE Thrombocytopenia, Grade ≥3 [1]: 1 (50) patients, n (%)
TEAE Upper respiratory tract infection, Grade 1–2 [1]: 0 patients, n (%)
TEAE Upper respiratory tract infection, Grade ≥3 [1]: 0 patients, n (%)
TEAE Vomiting, Grade 1–2 [1]: 1 (50) patients, n (%)
TEAE Vomiting, Grade ≥3 [1]: 0 patients, n (%)
TEAE White blood cell count decreased, Grade 1–2 [1]: 0 patients, n (%)
TEAE White blood cell count decreased, Grade ≥3 [1]: 1 (50) patients, n (%)
SRC decision (tolerability) (Cohort 1: 20 mg BID days 4–20 (17 days) + carboplatin AUC5, 2 patients): declared intolerable; also recorded: Not tolerated
TEAE Abdominal pain, Grade 1–2 [2]: 0 patients, n (%)
TEAE Abdominal pain, Grade ≥3 [2]: 0 patients, n (%)
TEAE Alanine aminotransferase increased, Grade 1–2 [2]: 1 (14) patients, n (%)
TEAE Alanine aminotransferase increased, Grade ≥3 [2]: 0 patients, n (%)
TEAE Anemia, Grade 1–2 [2]: 2 (29) patients, n (%)
TEAE Anemia, Grade ≥3 [2]: 2 (29) patients, n (%)
TEAE Any AE, Grade 1–2 [2]: 2 (29) patients, n (%)
TEAE Any AE, Grade ≥3 [2]: 5 (71) patients, n (%)
TEAE Arthralgia, Grade 1–2 [2]: 1 (14) patients, n (%)
TEAE Arthralgia, Grade ≥3 [2]: 0 patients, n (%)
TEAE Aspartate aminotransferase increased, Grade 1–2 [2]: 1 (14) patients, n (%)
TEAE Aspartate aminotransferase increased, Grade ≥3 [2]: 0 patients, n (%)
TEAE Constipation, Grade 1–2 [2]: 2 (29) patients, n (%)
TEAE Constipation, Grade ≥3 [2]: 0 patients, n (%)
TEAE Contusion, Grade 1–2 [2]: 1 (14) patients, n (%)
TEAE Contusion, Grade ≥3 [2]: 0 patients, n (%)
TEAE Cough, Grade 1–2 [2]: 5 (71) patients, n (%)
TEAE Cough, Grade ≥3 [2]: 0 patients, n (%)
TEAE Decreased appetite, Grade 1–2 [2]: 1 (14) patients, n (%)
TEAE Decreased appetite, Grade ≥3 [2]: 0 patients, n (%)
TEAE Diarrhea, Grade 1–2 [2]: 2 (29) patients, n (%)
TEAE Diarrhea, Grade ≥3 [2]: 0 patients, n (%)
TEAE Dizziness, Grade 1–2 [2]: 0 patients, n (%)
TEAE Dizziness, Grade ≥3 [2]: 0 patients, n (%)
TEAE Dyspnea, Grade 1–2 [2]: 3 (43) patients, n (%)
TEAE Dyspnea, Grade ≥3 [2]: 0 patients, n (%)
TEAE Fatigue, Grade 1–2 [2]: 4 (58) patients, n (%)
TEAE Fatigue, Grade ≥3 [2]: 1 (14) patients, n (%)
TEAE Hypocalcemia, Grade 1–2 [2]: 0 patients, n (%)
TEAE Hypocalcemia, Grade ≥3 [2]: 0 patients, n (%)
TEAE Insomnia, Grade 1–2 [2]: 2 (29) patients, n (%)
TEAE Insomnia, Grade ≥3 [2]: 0 patients, n (%)
TEAE Lower respiratory tract infection, Grade 1–2 [2]: 2 (29) patients, n (%)
TEAE Lower respiratory tract infection, Grade ≥3 [2]: 0 patients, n (%)
TEAE Nausea, Grade 1–2 [2]: 2 (29) patients, n (%)
TEAE Nausea, Grade ≥3 [2]: 0 patients, n (%)
TEAE Neutropenia, Grade 1–2 [2]: 1 (14) patients, n (%)
TEAE Neutropenia, Grade ≥3 [2]: 0 patients, n (%)
TEAE Neutrophil count decreased, Grade 1–2 [2]: 0 patients, n (%)
TEAE Neutrophil count decreased, Grade ≥3 [2]: 0 patients, n (%)
TEAE Platelet count decreased, Grade 1–2 [2]: 0 patients, n (%)
TEAE Platelet count decreased, Grade ≥3 [2]: 1 (14) patients, n (%)
TEAE Pyrexia, Grade 1–2 [2]: 3 (43) patients, n (%)
TEAE Pyrexia, Grade ≥3 [2]: 0 patients, n (%)
TEAE Thrombocytopenia, Grade 1–2 [2]: 4 (58) patients, n (%)
TEAE Thrombocytopenia, Grade ≥3 [2]: 1 (14) patients, n (%)
TEAE Upper respiratory tract infection, Grade 1–2 [2]: 3 (43) patients, n (%)
TEAE Upper respiratory tract infection, Grade ≥3 [2]: 0 patients, n (%)
TEAE Vomiting, Grade 1–2 [2]: 2 (29) patients, n (%)
TEAE Vomiting, Grade ≥3 [2]: 0 patients, n (%)
TEAE White blood cell count decreased, Grade 1–2 [2]: 0 patients, n (%)
TEAE White blood cell count decreased, Grade ≥3 [2]: 0 patients, n (%)
TEAE Abdominal pain, Grade 1–2 [3]: 0 patients, n (%)
TEAE Abdominal pain, Grade ≥3 [3]: 0 patients, n (%)
TEAE Alanine aminotransferase increased, Grade 1–2 [3]: 0 patients, n (%)
TEAE Alanine aminotransferase increased, Grade ≥3 [3]: 0 patients, n (%)
TEAE Anemia, Grade 1–2 [3]: 1 (33) patients, n (%)
